These results are taken from US20090143279A1 (priority 2007, published 2009).

Where two headings read alike, the source gives them in different places.

One assay relates to cytochrome c. The format is cell-based, mouse. The following applies: Conc 20 μM; for cyt c (composite Z-score): normalized score vs mock-treated (DMSO) wells.
The next assay deals with mtOXPHOS transcripts. The format is cell-based, mouse. The following applies: for mitoOX (composite Z-score) / mitoOX: Conc 20 μM; for mitoOX (composite Z-score): normalized score vs mock-treated (DMSO) wells.
Assay [1] has as its system cellular dehydrogenase activity. The following applies: Conc 20 μM; for MTT (composite Z-score): normalized score vs mock-treated (DMSO) wells.
The next assay deals with nuOXPHOS transcripts. The format is cell-based, mouse. The following applies: for nucOX (composite Z-score) / nucOX: Conc 20 μM; for nucOX (composite Z-score): normalized score vs mock-treated (DMSO) wells.
The next assay relates to reactive oxygen species. The assay is classed as cell-based, mouse. The following applies: Conc 20 μM; for ROS (composite Z-score): normalized score vs mock-treated (DMSO) wells.
A further assay relates to C2C12 myotubes. The following applies: Conc 20 μM; for Viability (composite Z-score): normalized score vs mock-treated (DMSO) wells.
Assay [2] has as its system mitochondrial membrane potential. The assay is classed as cell-based, mouse. The following applies: Conc 20 μM; for ΔΨm (composite Z-score): normalized score vs mock-treated (DMSO) wells.
The test system of another assay is OXPHOS gene expression. The assay is classed as cell-based, mouse. The following applies: Conc 20 μM; for GE-HTS (composite Z-score): normalized score vs mock-treated (DMSO) wells.
Setting [3] is: composite Z-score vs DMSO wells.
Where [4] appears, read: composite Z-score vs mock-treated (DMSO) wells.
The mark [5] stands for this setting: Table 7, C2C12 myotubes, 48 h, composite Z-score.

Sequence of cytochrome c (P62897 whole entry): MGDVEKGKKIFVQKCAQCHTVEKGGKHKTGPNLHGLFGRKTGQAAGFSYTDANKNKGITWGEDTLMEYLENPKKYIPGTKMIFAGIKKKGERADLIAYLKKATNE

For the compound `CC(=O)Oc1cc2c(c(C)c1OC(C)=O)CC=C1[C@@]2(C)CC[C@@]2(C)C3C[C@](C)(C(=O)O)CC[C@]3(C)CC[C@]12C` (stereo partly drawn) [dihydrocelastryl diacetate], the “cyt c (composite Z-score)” value in the assay on cytochrome c is reported as −5.617. For the same compound, the “mitoOX (composite Z-score)” value in the assay with mtOXPHOS transcripts is on record as −3.815. For the same compound, in assay [1], the “MTT (composite Z-score)” value is reported as −4.098. The “nucOX (composite Z-score)” value in the assay on nuOXPHOS transcripts was found to be 0.241. For the same compound, in the assay on reactive oxygen species, the “ROS (composite Z-score)” value is −3.182. Also, the “Viability (composite Z-score)” value in the assay on C2C12 myotubes was −4.472. Also, the “ΔΨm (composite Z-score)” value in assay [2] is −3.309. Further, the “GE-HTS (composite Z-score)” value with OXPHOS gene expression is −1.199.

In turn, `O=c1[nH]c(=O)n([C@H]2C[C@H](O)[C@@H](CO)O2)cc1F` [floxuridine] gave a cyt c with cytochrome c (setting [3]) of −0.314. Besides, the mitoOX in the assay on mtOXPHOS transcripts (setting [3]) is reported as 0.539. The MTT in assay [1] (setting [3]) is listed as −1.643. In the assay on nuOXPHOS transcripts (setting [3]), this compound yielded a nucOX of 0.993. This compound came in with an ROS in the assay on reactive oxygen species (setting [3]) of 0.063. The Viability in the assay on C2C12 myotubes (setting [3]) is −0.712. The ΔΨm in assay [2] (setting [3]) is on record as −1.275. In the assay with OXPHOS gene expression (setting [3]), this compound came in with a GE-HTS of 0.909.

On to `Oc1nc2cc(Cl)c(Cl)cc2nc1O` [2,3-dihydroxy-6,7-dichloroquinoxaline], for which the “cyt c (composite Z-score)” value with cytochrome c worked out at 0.279. In addition, the “mitoOX (composite Z-score)” value in the assay on mtOXPHOS transcripts was −0.565. In addition, the “MTT (composite Z-score)” value in assay [1] is −1.458. The “nucOX (composite Z-score)” value with nuOXPHOS transcripts is listed as −0.712. In the assay on reactive oxygen species, the “ROS (composite Z-score)” value came out at 0.085. In the assay on C2C12 myotubes, the “Viability (composite Z-score)” value was −0.077. Also, the “ΔΨm (composite Z-score)” value in assay [2] is listed as −1.689. The “GE-HTS (composite Z-score)” value in the assay on OXPHOS gene expression is −0.724.

In the case of `Cc1cc(=O)c2c(O)c(C)c(O)cc2o1` [eugenitol], in the assay on cytochrome c (setting [4]), the cyt c is on record as −0.041. Moreover, the mitoOX in the assay with mtOXPHOS transcripts (setting [4]) worked out at 0.962. The MTT in assay [1] (setting [4]) was −1.139. The compound further registered a nucOX with nuOXPHOS transcripts (setting [4]) of 0.168. This compound yielded an ROS with reactive oxygen species (setting [4]) of 1.256. In the assay on C2C12 myotubes (setting [4]), this compound showed a Viability of −0.575. In assay [2] (setting [4]), this compound registered a ΔΨm of −0.541. Further, in the assay with OXPHOS gene expression (setting [4]), the GE-HTS was determined as 0.471.

In the case of `CC(=O)O[C@@H]1c2c(ccc3ccc(=O)oc23)OC(C)(C)[C@@H]1OC(=O)CC(C)C` [dihydrosamidin, reference compound], the “cyt c (composite Z-score)” value in the assay with cytochrome c is reported as 0.147. Also, the “mitoOX (composite Z-score)” value in the assay with mtOXPHOS transcripts is reported as 1.477. Moreover, the “mito-OXPHOS Z” value with mtOXPHOS transcripts (setting [5]) amounted to 1.48. In addition, in assay [1], the “MTT (composite Z-score)” value is −0.826. Moreover, the “nucOX (composite Z-score)” value in the assay with nuOXPHOS transcripts is listed as 1.843. In addition, the “nucOXPHOS Z” value in the assay on nuOXPHOS transcripts (setting [5]) was 1.84. For the same compound, the “ROS (composite Z-score)” value in the assay with reactive oxygen species amounted to 4.794. Also, the “Viability (composite Z-score)” value in the assay on C2C12 myotubes is 0.476. The “ΔΨm (composite Z-score)” value in assay [2] was 0.199. Moreover, the “GE-HTS (composite Z-score)” value in the assay on OXPHOS gene expression stood at 1.854.

As to `CCN1CCN(C(=O)N[C@@H](C(=O)N[C@@H]2C(=O)N3[C@@H]2SC(C)(C)[C@@H]3C(=O)O)c2ccccc2)C(=O)C1=O` [piperacillin], the cyt c in the assay on cytochrome c (composite Z-score vs DMSO) was found to be 0.544. The same compound returned a mitoOX with mtOXPHOS transcripts (composite Z-score vs DMSO) of −0.857. This compound had an MTT in assay [1] (composite Z-score vs DMSO) of −1.188. This compound returned a nucOX in the assay with nuOXPHOS transcripts (composite Z-score vs DMSO) of −0.339. In the assay on reactive oxygen species (composite Z-score vs DMSO), this compound registered an ROS of 0.645. The Viability with C2C12 myotubes (composite Z-score vs DMSO) is on record as −0.990. For the same compound, the ΔΨm in assay [2] (composite Z-score vs DMSO) was −0.150. In addition, the GE-HTS in the assay on OXPHOS gene expression (composite Z-score vs DMSO) is −0.548.

`CO[C@H]1[C@H](O)[C@H](O[C@H]2CC[C@@]3(C=O)[C@H](CC[C@@H]4[C@@H]3CC[C@]3(C)[C@@H](C5=CC(=O)OC5)CC[C@]43O)C2)O[C@@H](C)[C@@H]1O` [peruvoside] came in with a cyt c with cytochrome c (setting [3]) of 0.075. In the assay with mtOXPHOS transcripts (setting [3]), this compound showed a mitoOX of 0.324. Moreover, in assay [1] (setting [3]), the MTT is −1.190. This compound gave a nucOX in the assay on nuOXPHOS transcripts (setting [3]) of 0.297. In the assay with reactive oxygen species (setting [3]), this compound registered an ROS of 0.997. In addition, the Viability with C2C12 myotubes (setting [3]) came out at 0.426. The compound further showed a ΔΨm in assay [2] (setting [3]) of −0.906. In addition, the GE-HTS in the assay on OXPHOS gene expression (setting [3]) is reported as 0.328.

The compound “7-deshydroxypyrogallin-4-carboxylic acid” showed a cyt c in the assay on cytochrome c (setting [4]) of 0.419. In the assay on mtOXPHOS transcripts (setting [4]), this compound returned a mitoOX of −0.770. In assay [1] (setting [4]), this compound registered an MTT of −0.460. In the assay with nuOXPHOS transcripts (setting [4]), the nucOX is −1.039. The same compound had an ROS with reactive oxygen species (setting [4]) of −0.210. Further, in the assay with C2C12 myotubes (setting [4]), the Viability came to 0.121. In addition, the ΔΨm in assay [2] (setting [4]) was −1.109. Besides, the GE-HTS in the assay on OXPHOS gene expression (setting [4]) is recorded as −0.997.
